Results on 29 compounds are retold here after US8114885B2, “Chemical compounds” (GlaxoSmithKline LLC, priority 2000, dated 2012).

The structures appear in SMILES notation. Structures can show the parent of a compound that is named as a salt.

For this experiment, the system named is HUVEC. The experiment is described as follows: Human Umbilical Vein Endothelial Cell (HUVEC) proliferation assay (BrdU incorporation). It counts as cell-based. As to conditions: VEGF-stimulated HUVEC, 72 hrs, read-out: Inhibition of HUVEC proliferation IC50. As for the experimental part:
Human Umbilical Vein Endothelial Cell (HUVEC) Proliferation Assay (BrdU Incorporation) Materials
HUVEC cells and EGM-MV (Endothelial cell growth medium—microvascular) were purchased from Clonetics (San Diego, Calif.). VEGF and bFGF were purchased from R&D Systems (Minneapolis, Minn.). Anti-BrdU antibody was obtained from Chemicon International (Temecula, Calif.).
HUVECs were routinely maintained in EGM-MV medium and were used within passage 7. HUVECs were plated at a density of 2500 cells/well in M199 medium containing 5% FBS (Hyclone) in type I collagen coated plate (Becton Dickinson). The plate was incubated at 37° C. overnight. The medium was removed by aspiration, and test compounds were added to each well in a volume of 0.1 ml/well in serum-free M199 medium. Compound concentrations ranged from 1.5 nM to 30 micromolar. The plate was incubated for 30 min at 37° C. Another 0.1 ml of serum-free M199 medium containing BSA and VEGF (or bFGF) was added to give a final concentration of 0.1% BSA and 10 ng/ml VEGF (0.3 ng/ml bFGF). The plate was incubated at 37° C. for 72 hrs. BrdU was added to each well after the first 48 hrs to give a concentration of 10 micromolar. The calorimetric ELISA assay was performed according to manufacturer's (Roche Molecular Sciences) instructions, with detection by absorbance reading at 450 nm. Results were plotted as concentration of test compound vs. absorbance to give an IC50 value for inhibition of BrdU incorporation.
(Uptake of a labelled nucleoside into DNA is a usual measure of proliferation.)

As to `CCS(=O)(=O)c1ccc(OC)c(Nc2nccc(N(C)c3ccc4c(C)n[nH]c4c3)n2)c1` [Example 22, N^2-[5-(ethylsulfonyl)-2-methoxyphenyl]-N^4-methyl-N^4-(3-methyl-1H-indazol-6-yl)-2,4-pyrimidinediamine], the IC50 is 1 to 200 nM.

Turning to `Cc1n[nH]c2cc(N(CC#N)c3ccnc(Nc4cccc(CS(C)(=O)=O)c4)n3)ccc12` [Example 46, [(3-methyl-1H-indazol-6-yl)(2-{3-[(methylsulfonyl)methyl]anilino}-4-pyrimidinyl)amino]acetonitrile], the IC50 lay within 1 to 200 nM.

On to `C#CCN(c1ccc2c(C)n[nH]c2c1)c1ccnc(Nc2cccc(S(N)(=O)=O)c2)n1` [Example 51, 3-({4-[(3-methyl-1H-indazol-6-yl)(2-propynyl)amino]-2-pyrimidinyl}amino)benzenesulfonamide], for which the IC50 fell in the range of 201 to 500 nM.

Consider `Cc1n[nH]c2cc(N(C)c3ccnc(Nc4cc(S(C)(=O)=O)ccc4F)n3)ccc12` [Example 67, N^2-[2-fluoro-5-(methylsulfonyl)phenyl]-N^4-methyl-N^4-(3-methyl-1H-indazol-6-yl)-2,4-pyrimidinediamine], for which the IC50 is 201 to 500 nM.

With `Cc1n[nH]c2cc(N(CC#N)c3ccnc(Nc4ccc(CS(C)(=O)=O)cc4)n3)ccc12` [Example 44, [(3-methyl-1H-indazol-6-yl)(2-{4-[(methylsulfonyl)methyl]anilino}-4-pyrimidinyl)amino]acetonitrile], the IC50 was in the range of 201 to 500 nM.

For `Cc1cc(S(N)(=O)=O)ccc1Nc1nccc(N(C)c2ccc3c(C)n[nH]c3c2)n1` [Example 63, 3-methyl-4-({4-[methyl(3-methyl-1H-indazol-6-yl)amino]-2-pyrimidinyl}amino)benzenesulfonamide], the IC50 lay within 201 to 500 nM.

Take `CCN(c1ccc2c(C)n[nH]c2c1)c1nc(Nc2cc(S(C)(=O)=O)ccc2OC)ncc1F` [Example 10, N^4-ethyl-5-fluoro-N^2-[2-methoxy-5-(methylsulfonyl)phenyl]-N^4-(3-methyl-1H-indazol-6-yl)-2,4-pyrimidinediamine]: the IC50 is > 1000 nM.

Take `CCS(=O)(=O)c1ccc(OC)c(Nc2ncnc(N(C)c3ccc4c(C)n[nH]c4c3)n2)c1` [Example 17, N^2-[5-(ethylsulfonyl)-2-methoxyphenyl]-N^4-methyl-N^4-(3-methyl-1H-indazol-6-yl)-1,3,5-triazine-2,4-diamine hydrochloride]: the IC50 lay in the range of 501 to 1000 nM.

For `Cc1n[nH]c2cc(N(C)c3ccnc(Nc4cccc(NS(C)(=O)=O)c4)n3)ccc12` [Example 27, N-[3-({4-[methyl(3-methyl-1H-indazol-6-yl)amino]-2-pyrimidinyl}amino)phenyl]methanesulfonamide], the IC50 lay within 1 to 200 nM.

As for `CCn1nc2cc(N(C)c3ccnc(Nc4cccc(S(N)(=O)=O)c4)n3)ccc2c1C` [Example 76, 3-({4-[(2-ethyl-3-methyl-2H-indazol-6-yl)(methyl)amino]pyrimidin-2-yl}amino)benzenesulfonamide], the IC50 lay within 1 to 200 nM.

Turning to `CNS(=O)(=O)c1ccc(OC)c(Nc2nccc(Nc3ccc4c(C)n[nH]c4c3)n2)c1` [Example 43, 4-methoxy-N-methyl-3-({4-[(3-methyl-1H-indazol-6-yl)amino]-2-pyrimidinyl}amino)benzenesulfonamide], the IC50 lay within 201 to 500 nM.

For the compound `COc1ccc(S(=O)(=O)C(C)C)cc1Nc1nccc(N(C)c2ccc3c(C)n[nH]c3c2)n1` [Example 35, N^2-[5-(isopropylsulfonyl)-2-methoxyphenyl]-N^4-methyl-N^4-(3-methyl-1H-indazol-6-yl)-2,4-pyrimidinediamine], the IC50 lay within 1 to 200 nM.

Take `COc1ccc(C(N)=O)cc1Nc1ncc(F)c(N(C)c2ccc3c(C)n[nH]c3c2)n1` [Example 13, 3-({5-fluoro-4-[methyl(3-methyl-1H-indazol-6-yl)amino]-2-pyrimidinyl}amino)-4-methoxybenzamide]: the IC50 was 201 to 500 nM.

With `CCc1n[nH]c2cc(N(C)c3nc(Nc4cccc(CS(C)(=O)=O)c4)ncc3F)ccc12` [Example 8, N^4-(3-ethyl-1H-indazol-6-yl)-5-fluoro-N^4-methyl-N^2-{3-[(methylsulfonyl)methyl]phenyl}-2,4-pyrimidinediamine], the IC50 fell in the range of 201 to 500 nM.

As to `Cc1ccc(Nc2nccc(N(C)c3ccc4c(C)n[nH]c4c3)n2)cc1S(N)(=O)=O` [Example 64, 2-methyl-5-({4-[methyl(3-methyl-1H-indazol-6-yl)amino]-2-pyrimidinyl}amino)benzenesulfonamide], the IC50 was 1 to 200 nM.

Consider `CCN(c1ccc2c(C)n[nH]c2c1)c1ccnc(Nc2cc(S(=O)(=O)CC)ccc2OC)n1` [Example 26, N^4-ethyl-N^2-[5-(ethylsulfonyl)-2-methoxyphenyl]-N^4-(3-methyl-1H-indazol-6-yl)-2,4-pyrimidinediamine], for which the IC50 lay within 201 to 500 nM.

As to `Cc1n[nH]c2cc(N(C)c3nc(Nc4cccc(CS(C)(=O)=O)c4)ncc3F)ccc12` [Example 3, 5-fluoro-N^4-methyl-N^4-(3-methyl-1H-indazol-6-yl)-N^2-{3-[(methylsulfonyl)methyl]phenyl}-2,4-pyrimidinediamine], the IC50 lay in the range of 1 to 200 nM.

Take `Cc1n[nH]c2cc(N(C)c3ccnc(Nc4cccc(CS(=O)(=O)C(C)C)c4)n3)ccc12` [Example 28, N^2-{3-[(isopropylsulfonyl)methyl]phenyl}-N^4-methyl-N^4-(3-methyl-1H-indazol-6-yl)-2,4-pyrimidinediamine]: the IC50 is 1 to 200 nM.

Consider `Cc1n[nH]c2cc(Nc3ncnc(Nc4cccc(CS(C)(=O)=O)c4)n3)ccc12` [Example 15, N^2-(3-methyl-1H-indazol-6-yl)-N^4-{3-[(methylsulfonyl)methyl]phenyl}-1,3,5-triazine-2,4-diamine trifluoroacetate], for which the IC50 lay within 501 to 1000 nM.

As for `COc1ccc(S(N)(=O)=O)cc1Nc1nccc(N(C)c2ccc3c(C)n[nH]c3c2)n1` [Example 54, 4-methoxy-3-({4-[methyl(3-methyl-1H-indazol-6-yl)amino]-2-pyrimidinyl}amino)benzenesulfonamide], the IC50 was in the range of 1 to 200 nM.

For the compound `COc1cc(S(N)(=O)=O)ccc1Nc1ncc(F)c(N(C)c2ccc3c(C)n[nH]c3c2)n1` [Example 14, 4-({5-fluoro-4-[methyl(3-methyl-1H-indazol-6-yl)amino]-2-pyrimidinyl}amino)-3-methoxybenzenesulfonamide], the IC50 was 1 to 200 nM.

For `CN(c1ccc2c(CO)n(C)nc2c1)c1ccnc(Nc2cccc(S(N)(=O)=O)c2)n1` [Example 73, 3-({4-[[3-(hydroxymethyl)-2-methyl-2H-indazol-6-yl](methyl)amino]pyrimidin-2-yl}amino)benzenesulfonamide], the IC50 lay within 1 to 200 nM.

Consider `Cc1n[nH]c2cc(N(C)c3ccnc(Nc4cccc(S(C)(=O)=O)c4)n3)ccc12` [Example 53, N^4-methyl-N^4-(3-methyl-1H-indazol-6-yl)-N^2-[3-(methylsulfonyl)phenyl]-2,4-pyrimidinediamine], for which the IC50 lay within 1 to 200 nM.

`Cc1c2ccc(N(C)c3ccnc(Nc4ccc(CS(C)(=O)=O)cc4)n3)cc2nn1C` [Example 72, N^4-(2,3-dimethyl-2H-indazol-6-yl)-N^4-methyl-N^2-{4-[(methylsulfonyl)methyl]phenyl}pyrimidine-2,4-diamine]: the IC50 lay in the range of 1 to 200 nM.

For `Cc1n[nH]c2cc(N(C)c3ncnc(Nc4cccc(CS(C)(=O)=O)c4)n3)ccc12` [Example 16, N^2-methyl-N^2-(3-methyl-1H-indazol-6-yl)-N^4-{3-[(methylsulfonyl)methyl]phenyl}-1,3,5-triazine-2,4-diamine hydrochloride], the IC50 is 201 to 500 nM.

For the compound `Cc1c2ccc(N(C)c3ccnc(Nc4cccc(S(N)(=O)=O)c4)n3)cc2nn1C` [Example 70, 3-({4-[(2,3-dimethyl-2H-indazol-6-yl)(methyl)amino]pyrimidin-2-yl}amino)benzenesulfonamide], the IC50 lay within 1 to 200 nM.

`COc1ccc(S(=O)(=O)C(C)C)cc1Nc1ncc(F)c(N(C)c2ccc3c(C)n[nH]c3c2)n1` [Example 5, 5-fluoro-N^2-[5-(isopropylsulfonyl)-2-methoxyphenyl]-N^4-methyl-N^4-(3-methyl-1H-indazol-6-yl)-2,4-pyrimidinediamine]: the IC50 was 201 to 500 nM.

For `CCN(c1ccc2c(C)n[nH]c2c1)c1ccnc(Nc2cccc(NC(C)=O)c2)n1` [Example 32, N-[3-({4-[ethyl(3-methyl-1H-indazol-6-yl)amino]-2-pyrimidinyl}amino)phenyl]acetamide], the IC50 lay within 1 to 200 nM.

As for `CC(=O)Nc1ccc(Nc2ncnc(N(C)c3ccc4c(C)n[nH]c4c3)n2)cc1` [Example 20, N-[4-({4-[methyl(3-methyl-1H-indazol-6-yl)amino]-1,3,5-triazin-2-yl}amino)phenyl]acetamide hydrochloride], the IC50 is > 1000 nM.
